# Experimental data reported in publication PMC7069944, “Amino acid levels determine metabolism and CYP450 function of hepatocytes and hepatoma cell lines” (Nature Communications, 2020).
# Several values for one entry are separate records, joined by “and”; a condition that tells them apart may be missing. Identical values can stand only once.
# What was measured:
# [1] = system: HepG2; test: Repeated-exposure DILI training compounds, resazurin conversion, HepG2; details: repeat exposure
# Summary of the method: (§1)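 Viability by resazurin conversion, correlated with Cmax, was assessed after drug exposure in 384-well cultures of differentiated PSCs and of HepG2 (40,000 cells/well). Dosing began 8 h post-attachment, with untreated wells as negative control.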
# [2] = system: HLC; test: Repeated-exposure DILI training compounds, resazurin conversion, HLC; details: repeat exposure
# Summary of the method: as §1
# [3] = system: HC3X; test: Repeated-exposure DILI training compounds, resazurin conversion, HC3X
# Summary of the method: as §1
# [4] = system: HC6X; test: Repeated-exposure DILI training compounds, resazurin conversion, HC6X; details: repeat exposure
# Summary of the method: as §1
compound,measurement,setting,value
COc1ccccc1Oc1c(NS(=O)(=O)c2ccc(C(C)(C)C)cc2)nc(-c2ncccn2)nc1OCCO [bosentan],% resazurin conversion,"[1]; HepG2 AAGLY D30, 3 uM",83.9% and 87.5% and 86.6% and 85% and 90.8% and 89.1%
same,% resazurin conversion,"[1]; HepG2 AAGLY D30, 5 uM",103.5% and 109.8% and 105.4% and 106.1% and 101% and 103.7%
same,% resazurin conversion,"[1]; HepG2 AAGLY D30, 10 uM",90.8% and 98.2% and 96.3% and 97.7% and 97.3% and 97.5%
same,% resazurin conversion,"[1]; HepG2 AAGLY D30, 30 uM",90.6% and 101.6% and 98.2% and 101.9% and 99.2% and 99.7%
same,% resazurin conversion,"[1]; HepG2 AAGLY D30, 50 uM",84.4% and 90.1% and 80.4% and 87% and 86.9% and 92.2%
same,% resazurin conversion,"[1]; HepG2 AAGLY D30, 600 uM",8% and 8.7% and 8.4% and 8.6% and 8.3% and 9%
same,% resazurin conversion,"[1]; HepG2 AAGLY D30, 1200 uM",7.9% and 8.6% and 8% and 8.4% and 8.7%
same,% resazurin conversion,"[1]; HepG2 CTL D7, 3 uM",72.9% and 95.8% and 79% and 88.4% and 77.2% and 78.8%
same,% resazurin conversion,"[1]; HepG2 CTL D7, 5 uM",73% and 91.1% and 80.4% and 81.6% and 71% and 76.1%
same,% resazurin conversion,"[1]; HepG2 CTL D7, 10 uM",80.2% and 87.8% and 81.3% and 100.4% and 83.9% and 90.2%
same,% resazurin conversion,"[1]; HepG2 CTL D7, 30 uM",88.1% and 98.7% and 86.3% and 105.4% and 85.7% and 92.4%
same,% resazurin conversion,"[1]; HepG2 CTL D7, 50 uM",100.8% and 104.7% and 98% and 123.6% and 67.3% and 101.1%
same,% resazurin conversion,"[1]; HepG2 CTL D7, 100 uM",111.8% and 105.3% and 106.2% and 109.9% and 117.5%
same,% resazurin conversion,"[1]; HepG2 CTL D7, 300 uM",107% and 119.1% and 111.5% and 146.3% and 120.1% and 110.8%
same,% resazurin conversion,"[1]; HepG2 CTL D7, 600 uM",50.2% and 44.9% and 48.2% and 53.5% and 46.5% and 47.5%
same,% resazurin conversion,"[1]; HepG2 CTL D7, 1200 uM",40.4% and 38.1% and 40.3% and 39.7% and 40.2% and 39%
same,% resazurin conversion,"[2]; HLC AAGLY D40, 3 uM",109.3% and 112.7% and 130.6% and 92% and 117.8% and 119.8%
same,% resazurin conversion,"[2]; HLC AAGLY D40, 10 uM",148.2% and 164.2% and 142.5% and 106% and 129.2% and 90.2%
same,% resazurin conversion,"[2]; HLC AAGLY D40, 30 uM",132.6% and 125.2% and 98.6% and 133% and 124.8%
same,% resazurin conversion,"[2]; HLC AAGLY D40, 300 uM",153.6% and 174.4% and 181% and 131.1% and 171.9% and 113.3%
same,% resazurin conversion,"[2]; HLC LDM D40, 3 uM",65.2% and 80.9% and 104.5% and 116.7% and 90.6% and 90.5%
same,% resazurin conversion,"[2]; HLC LDM D40, 5 uM",79.3% and 100.8% and 63.5% and 57.3% and 83.2% and 66.4%
same,% resazurin conversion,"[2]; HLC LDM D40, 10 uM",54.2% and 93.9% and 81.1% and 77.7% and 59.3% and 81.3%
same,% resazurin conversion,"[2]; HLC LDM D40, 50 uM",60.7% and 70.7% and 67.1% and 86.7% and 80.2% and 104.9%
same,% resazurin conversion,"[2]; HLC LDM D40, 100 uM",75% and 93.6% and 100.7% and 102.7% and 92.9% and 94.1%
same,IC50/Cmax,[3]; human,20.81
same,% resazurin conversion,"[3]; repeat exposure, HC3X AAGLY D40, 600 uM",1159% and 1257% and 1241% and 1301% and 1247% and 1406%
same,% resazurin conversion,"[4]; HC6X AAGLY D40, 3 uM",121.3% and 137.4% and 77.6% and 97.3% and 111.3% and 90.5%
same,% resazurin conversion,"[4]; HC6X AAGLY D40, 5 uM",110% and 103.2% and 89.1% and 89.6% and 114.4% and 93.7%
same,% resazurin conversion,"[4]; HC6X AAGLY D40, 10 uM",131.4% and 134.4% and 92.1% and 126.5% and 93.7% and 145.1%
same,% resazurin conversion,"[4]; HC6X AAGLY D40, 50 uM",121.5% and 126.6% and 76.5% and 101.9% and 125.3% and 68.1%
same,% resazurin conversion,"[4]; HC6X AAGLY D40, 300 uM",51.6% and 48.9% and 38.5% and 48% and 36.4% and 37.5%
same,% resazurin conversion,"[4]; HC6X AAGLY D40, 600 uM",42.8% and 51.2% and 38.6% and 45.8% and 36.3% and 36.8%
same,% resazurin conversion,"[4]; HC6X AAGLY D40, 1200 uM",43.6% and 36.9% and 34.8% and 34.9% and 34.2% and 34.3%
same,% resazurin conversion,"[4]; HC6X AAGLY D40 Remove dox, 5 uM",141.3% and 131.9% and 106.3% and 141.8% and 135.5% and 84.1%
same,% resazurin conversion,"[4]; HC6X AAGLY D40 Remove dox, 10 uM",112.1% and 102.7% and 152.9% and 116.3% and 149.9% and 95.7%
